The values that follow are results of earlier work, collected in patent US5668009A, “Methods for treating cotton-containing fabrics with CBH I enriched cellulase” (Genencor International, Inc., priority 1995, dated 1997).

In data set [1] the target is exo-cellobiohydrolase (CBH) type components, as characterized for CBH I and CBH II from Trichoderma reesei. The note with it: competitive inhibition; general characterisation of CBH components; read-out: Ki (cellobiose), competitive inhibition.
Data set [2] has as its target β-Glucosidase (BG) components of fungal cellulase. The following applies: competitive inhibition; general characterisation of BG components; read-out: Ki (glucose), competitive inhibition.

For orientation: Ki means a dissociation constant, usually derived from enzyme kinetics or from competition with a known ligand. `OC[C@H]1O[C@@H](O[C@H]2[C@H](O)[C@@H](O)C(O)O[C@@H]2CO)[C@H](O)[C@@H](O)[C@@H]1O` (some centres unmarked) [cellobiose]: the Ki in data set [1] is approximately 1000 µM.
Consider `OC[C@H]1OC(O)[C@H](O)[C@@H](O)[C@@H]1O` (some centres unmarked) [glucose], for which the Ki in data set [2] was approximately 1000 µM.
